From patent publication US11214594B2, “Antimicrobial peptide having synergistic antibacterial effect with antibiotics on multidrug resistant bacteria, and use thereof” (priority 2016, dated 2022)
≈ marks a conversion by molar mass, not a printed value. Where two headings read alike, the source gives them in different places. Where a SMILES comes first, the peptide text is derived from it. [ ]: non-standard residue; d: D form.

Key:
[1] = test system: A. baumannii; experiment: MIC of antibiotic during combined treatment with antimicrobial peptide; type: cell-based, Acinetobacter baumannii; details: A. baumannii
Procedure, shortened: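 Read-out is the MIC of each combined solution, obtained from MH-medium dilutions of antibiotic added well by well, with a reversed-condition run as well.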

[2] = test system: A. baumannii; experiment: microbe, parasite or virus in culture; type: cell-based, Acinetobacter baumannii
Procedure, shortened: (§1)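 Peptides were serially diluted twofold in Mueller-Hinton medium and combined 1:1 with bacterial suspensions prepared at 2×10^6 CFU. Readout was the minimal inhibitory concentration, i.e. the lowest concentration with no growth.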

[3] = test system: MDRAB 12035; experiment: microbe, parasite or virus in culture; type: cell-based, Acinetobacter baumannii
Procedure, shortened: as §1

[4] = test system: MDRAB 12035; experiment: MIC of antibiotic during combined treatment with antimicrobial peptide; type: cell-based, Acinetobacter baumannii
Procedure, shortened: (§2)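 Strains in MH medium at 2×10^6 CFU/ml were mixed with peptide diluted stepwise (2:1) from its MIC, then antibiotic dilutions in MH medium were added to give the antibiotic MIC. The reversed set-up, peptide titrated against fixed antibiotic, gave the peptide MIC.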

[5] = test system: multi-drug resistant bacteria; experiment: MIC, summary statements for multi-drug resistant bacteria; type: cell-based
Procedure, shortened: as §1

[6] = test system: MDREC 1229; type: cell-based, Escherichia coli
Procedure, shortened: as §2

[7] = test system: E. coli; type: cell-based, Escherichia coli; details: E. coli
Procedure, shortened: as §2

[8] = test system: B. subtilis; experiment: microbe, parasite or virus in culture; type: cell-based, Bacillus subtilis
Procedure, shortened: as §1

[9] = test system: MDRPA 2003; type: cell-based, Pseudomonas aeruginosa
Procedure, shortened: as §1

[10] = test system: MDRPA 2002; type: cell-based, Pseudomonas aeruginosa
Procedure, shortened: as §1

[11] = combined with peptide at 1 μg/ml
[12] = combined with peptide at 2 μg/ml
[13] = combined with peptide at 4 μg/ml
[14] = combined with peptide at 6 μg/ml
[15] = combined with peptide at 8 μg/ml
[16] = combined with peptide at 16 μg/ml
[17] = combined with peptide at 32 μg/ml
[18] = combined with peptide at 64 μg/ml
[19] = peptide treatment concentration 1 μg/ml
[20] = peptide treatment concentration 2 μg/ml
[21] = peptide treatment concentration 4 μg/ml
[22] = peptide treatment concentration 6 μg/ml
[23] = peptide treatment concentration 8 μg/ml
[24] = peptide treatment concentration 16 μg/ml
[25] = peptide treatment concentration 32 μg/ml
[26] = peptide treatment concentration 64 μg/ml

CC[C@H](C)[C@H](NC(=O)[C@H](CCCCN)NC(=O)[C@H](Cc1c[nH]c2ccccc12)NC(=O)[C@@H](N)CCCNC(=N)N)C(=O)N[C@@H](Cc1ccccc1)C(=O)N[C@@H](CCCCN)C(=O)N[C@@H](CCCCN)C(=O)N[C@H](C(=O)N[C@H](CCCCN)C(=O)N[C@@H](CCCCN)C(=O)N[C@@H](CC(C)C)C(=O)N[C@@H](CC(C)C)C(=O)N[C@@H](Cc1c[nH]cn1)C(=O)N[C@@H](CO)C(=O)N[C@@H](Cc1ccccc1)C(=O)N[C@@H](CCCCN)C(=O)N[C@@H](CCCCN)C(=O)N[C@@H](Cc1ccccc1)C(N)=O)[C@@H](C)CC [PapMA-15, RWK IFK KIk KLL HSF KKF-NH2] (H-RWKIFKKI[dK]KLLHSFKKF-NH2; N-terminus assumed)
Antibiotic MIC, Erythromycin [1, 11]: 32 µg/mL
Antibiotic MIC, Linezolid [1, 11]: >128 µg/mL
Antibiotic MIC, Vancomycin [1, 11]: >128 µg/mL
Antibiotic MIC, Erythromycin [1, 12]: 32 µg/mL
Antibiotic MIC, Linezolid [1, 12]: 128 µg/mL
Antibiotic MIC, Vancomycin [1, 12]: 128 µg/mL
Antibiotic MIC, Erythromycin [1, 13]: 16 µg/mL
Antibiotic MIC, Linezolid [1, 13]: 64 µg/mL
Antibiotic MIC, Vancomycin [1, 13]: 32 µg/mL
Antibiotic MIC, Erythromycin [1, 14]: 2 µg/mL
Antibiotic MIC, Linezolid [1, 14]: 32 µg/mL
Antibiotic MIC, Vancomycin [1, 14]: 16 µg/mL
Antibiotic MIC, Erythromycin [1, 15]: 0.5 µg/mL
Antibiotic MIC, Linezolid [1, 15]: 16 µg/mL
Antibiotic MIC, Vancomycin [1, 15]: 16 µg/mL
Antibiotic MIC, Erythromycin [1, 16]: 0.25 µg/mL
Antibiotic MIC, Linezolid [1, 16]: 2 µg/mL
Antibiotic MIC, Vancomycin [1, 16]: 8 µg/mL
Antibiotic MIC, Erythromycin [1, 17]: 0 µg/mL
Antibiotic MIC, Linezolid [1, 17]: 0 µg/mL
Antibiotic MIC, Vancomycin [1, 17]: 0 µg/mL
Antibiotic MIC, Erythromycin [1, 18]: 0 µg/mL
Antibiotic MIC, Linezolid [1, 18]: 0 µg/mL
Antibiotic MIC, Vancomycin [1, 18]: 0 µg/mL
Minimal inhibitory concentration MIC [2]: 32 µg/mL (≈ 13.5 µM)
Peptide MIC, peptide alone [2]: 32 µg/mL
Antibacterial activity relative to PapMA-1 ([2]; A. baumannii and S. typhimurium): at least twice as high
Minimal inhibitory concentration MIC [3]: 32 µg/mL (≈ 13.5 µM)
Peptide MIC, peptide alone [3]: 32 µg/mL
Erythromycin MIC during combined treatment with peptide [4, 19]: 32 µg/mL
Linezolid MIC during combined treatment with peptide [4, 19]: >128 µg/mL
Vancomycin MIC during combined treatment with peptide [4, 19]: >128 µg/mL
Erythromycin MIC during combined treatment with peptide [4, 20]: 32 µg/mL
Linezolid MIC during combined treatment with peptide [4, 20]: >128 µg/mL
Vancomycin MIC during combined treatment with peptide [4, 20]: >128 µg/mL
Erythromycin MIC during combined treatment with peptide [4, 21]: 16 µg/mL
Linezolid MIC during combined treatment with peptide [4, 21]: 64 µg/mL
Vancomycin MIC during combined treatment with peptide [4, 21]: 128 µg/mL
Erythromycin MIC during combined treatment with peptide [4, 22]: 2 µg/mL
Linezolid MIC during combined treatment with peptide [4, 22]: 64 µg/mL
Vancomycin MIC during combined treatment with peptide [4, 22]: 32 µg/mL
Erythromycin MIC during combined treatment with peptide [4, 23]: 1 µg/mL
Linezolid MIC during combined treatment with peptide [4, 23]: 32 µg/mL
Vancomycin MIC during combined treatment with peptide [4, 23]: 32 µg/mL
Erythromycin MIC during combined treatment with peptide [4, 24]: 0.25 µg/mL
Linezolid MIC during combined treatment with peptide [4, 24]: 4 µg/mL
Vancomycin MIC during combined treatment with peptide [4, 24]: 16 µg/mL
Erythromycin MIC during combined treatment with peptide [4, 25]: 0 µg/mL
Linezolid MIC during combined treatment with peptide [4, 25]: 0 µg/mL
Vancomycin MIC during combined treatment with peptide [4, 25]: 0 µg/mL
Erythromycin MIC during combined treatment with peptide [4, 26]: 0 µg/mL
Linezolid MIC during combined treatment with peptide [4, 26]: 0 µg/mL
Vancomycin MIC during combined treatment with peptide [4, 26]: 0 µg/mL
Antibacterial activity relative to PapMA-1 [5]: twice to four times higher
Peptide MIC during treatment with antibiotic ([6]; erythromycin 32 μg/ml (Conc./MIC 1/8)): 2 µg/mL
Peptide MIC during treatment with antibiotic ([6]; erythromycin 64 μg/ml (Conc./MIC 1/4)): 2 µg/mL
Peptide MIC during treatment with antibiotic ([6]; erythromycin […] (Conc./MIC 1)): 0 µg/mL
Peptide MIC during treatment with antibiotic ([6]; erythromycin […] (Conc./MIC 1/2)): 2 µg/mL
Peptide MIC during treatment with antibiotic ([6]; linezolid 64 μg/ml (Conc./MIC 1/8)): 4 µg/mL
Peptide MIC during treatment with antibiotic ([6]; linezolid 512 μg/ml (Conc./MIC 1)): 0 µg/mL
Peptide MIC during treatment with antibiotic ([6]; linezolid […] (Conc./MIC 1/2)): 1 µg/mL
Peptide MIC during treatment with antibiotic ([6]; linezolid […] (Conc./MIC 1/4)): 2 µg/mL
Peptide MIC during treatment with antibiotic ([6]; vancomycin 512 μg/ml (Conc./MIC 1/2)): 2 µg/mL
Peptide MIC during treatment with antibiotic ([6]; vancomycin 1024 μg/ml (Conc./MIC 1)): 1 µg/mL
Peptide MIC during treatment with antibiotic ([6]; vancomycin […] (Conc./MIC 1/4)): 4 µg/mL
Peptide MIC during treatment with antibiotic ([6]; vancomycin […] (Conc./MIC 1/8)): 8 µg/mL
Peptide MIC ([7]; with Erythromycin […] (Conc./MIC 1)): 0 µg/mL
Peptide MIC ([7]; with Linezolid […] (Conc./MIC 1)): 0 µg/mL
Peptide MIC ([7]; with Vancomycin 1024 μg/ml (Conc./MIC 1)): 0 µg/mL
Minimal inhibitory concentration MIC [8]: >128 µg/mL
Minimal inhibitory concentration MIC [9]: 32 µg/mL (≈ 13.5 µM)
Minimal inhibitory concentration MIC [10]: 32 µg/mL (≈ 13.5 µM)
